1 compound from publication PMC12332164, “Synthesis and biological activity study of tanshinone I-pyridinium salt derivatives” (Natural Products and Bioprospecting, 2025) can be followed below.

The structures appear in SMILES notation.

The target in the experiment is T1, PI3Kα (Homo sapiens, UniProt P42336).
T1 construct: gene PIK3CA
The experiment is described as follows: biochemical.

T1 sequence (P42336 whole entry): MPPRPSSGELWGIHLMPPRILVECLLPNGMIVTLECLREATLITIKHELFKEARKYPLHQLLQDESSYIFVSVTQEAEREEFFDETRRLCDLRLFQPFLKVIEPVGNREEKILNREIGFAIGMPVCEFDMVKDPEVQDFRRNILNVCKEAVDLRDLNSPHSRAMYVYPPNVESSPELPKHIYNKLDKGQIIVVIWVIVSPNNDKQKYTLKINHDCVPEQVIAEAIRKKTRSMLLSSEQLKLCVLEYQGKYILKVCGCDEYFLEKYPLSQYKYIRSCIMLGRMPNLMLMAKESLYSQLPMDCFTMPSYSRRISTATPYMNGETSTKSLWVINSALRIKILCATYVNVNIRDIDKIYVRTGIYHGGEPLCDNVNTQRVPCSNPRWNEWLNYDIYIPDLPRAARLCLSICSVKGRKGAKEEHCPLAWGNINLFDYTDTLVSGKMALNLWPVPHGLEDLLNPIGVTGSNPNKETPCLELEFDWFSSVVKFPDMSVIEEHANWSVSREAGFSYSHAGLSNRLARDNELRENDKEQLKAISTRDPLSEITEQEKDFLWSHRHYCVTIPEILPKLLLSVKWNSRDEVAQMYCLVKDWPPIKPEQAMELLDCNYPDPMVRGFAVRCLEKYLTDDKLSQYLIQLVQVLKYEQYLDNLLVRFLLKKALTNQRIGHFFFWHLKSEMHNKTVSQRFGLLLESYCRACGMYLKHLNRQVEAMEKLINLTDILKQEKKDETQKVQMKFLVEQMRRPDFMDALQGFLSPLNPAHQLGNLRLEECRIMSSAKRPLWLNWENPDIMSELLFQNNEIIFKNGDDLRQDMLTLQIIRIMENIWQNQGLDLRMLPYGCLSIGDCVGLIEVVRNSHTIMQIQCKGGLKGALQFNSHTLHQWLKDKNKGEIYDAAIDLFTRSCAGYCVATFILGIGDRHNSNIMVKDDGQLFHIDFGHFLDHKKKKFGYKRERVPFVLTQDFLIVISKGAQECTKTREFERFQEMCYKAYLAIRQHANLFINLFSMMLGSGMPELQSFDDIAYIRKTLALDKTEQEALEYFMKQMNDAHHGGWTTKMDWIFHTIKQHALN
T1 sequence (P27986 2-724, further chain): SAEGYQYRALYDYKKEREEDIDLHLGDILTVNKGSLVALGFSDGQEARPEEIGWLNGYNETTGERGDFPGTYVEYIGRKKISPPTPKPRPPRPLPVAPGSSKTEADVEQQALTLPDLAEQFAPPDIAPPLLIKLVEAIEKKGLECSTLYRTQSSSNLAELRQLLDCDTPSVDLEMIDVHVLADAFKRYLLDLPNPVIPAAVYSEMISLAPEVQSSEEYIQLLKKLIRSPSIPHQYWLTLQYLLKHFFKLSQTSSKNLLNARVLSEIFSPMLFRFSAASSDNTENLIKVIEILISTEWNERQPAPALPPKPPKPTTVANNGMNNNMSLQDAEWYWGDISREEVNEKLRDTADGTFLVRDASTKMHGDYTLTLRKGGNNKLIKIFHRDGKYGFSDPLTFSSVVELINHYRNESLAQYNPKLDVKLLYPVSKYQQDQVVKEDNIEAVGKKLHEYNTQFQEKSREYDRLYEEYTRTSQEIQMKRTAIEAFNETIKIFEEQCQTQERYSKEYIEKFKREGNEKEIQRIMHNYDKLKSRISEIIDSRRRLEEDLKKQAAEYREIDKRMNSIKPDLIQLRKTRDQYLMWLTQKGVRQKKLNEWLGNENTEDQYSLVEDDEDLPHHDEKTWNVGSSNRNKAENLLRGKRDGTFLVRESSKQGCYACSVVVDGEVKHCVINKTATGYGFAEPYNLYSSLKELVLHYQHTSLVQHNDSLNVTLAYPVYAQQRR

In the case of `Cc1cccc2c1ccc1c3occ(C)c3c3[nH]c(-c4ccc[n+](CC(=O)c5ccc(Br)cc5)c4)nc3c21` [a4, 1-(2-(4-bromophenyl)-2-oxoethyl)-3-(1,6-dimethyl-12H-furo[2',3':1,2]phenanthro[3,4-d]imidazol-11-yl) pyridin-1-ium bromide], the IC50 – broadly, the concentration at which inhibition is half-maximal – turned out to be 9.24 ± 0.2 µM.
